Consider 3 molecules from publication PMC10974290, “Biocatalytic Synthesis of Coumarin S-Glycosides: Towards Non-Cytotoxic Probes for Biomedical Imaging and Sensing” (Molecules, 2024).

Marks after values point to notes of the source that are not given here.

The nature of data set [1]: UV-visible absorbance spectroscopy. The following applies: 0.1 mM. Format: physicochemical. The procedure:
Subsequently, the analysis was carried out under two distinct conditions: firstly, in DMF, at a final concentration of 0.1 mM; and secondly, in a mixture PBS:DMF (99:1%), at the same final concentration of 0.1 mM. These two experimental setups provided valuable insights into the spectral characteristics of the compounds in both a pure organic solvent and a solvent system closely resembling physiological conditions. The maxima absorption wavelengths are compiled in Table 3. These bands were attributed to transitions within the benzene and pyrone moieties, considered together as a single chromophore. […] Similarly, 7-MC and S-1 to S-6 compounds also absorb in this UV range (λmax = 328–330 nm). […] In the organic solvent, these values are found to be higher compared to those calculated for 4-MUB and 7-MC. Conversely, in PBS, the extinction coefficients for S-glycosides are lower compared to the parent thiol 7-MC. This highlights the profound impact of glycosylation on absorption properties, as well as the importance of solvent choice.
(§1) Both absorbance and fluorescence spectra were measured on a Tecan […] M PLEX 200 Pro plate reader equipped with monochromator allowing a scan from 230 to 1000 nm. All synthesized molecules were initially dissolved in 10 mM DMF and subsequently diluted in freshly prepared PBS (pH = 7.4) to achieve a final concentration of 0.1 mM. The solutions were then transferred to a Corning (Corning, NY, USA) UV-transparent 96-well plate. Absorbance spectra were recorded from 230 to 800 nm. Emission fluorescence spectra were recorded from 320 to 800 nm, under excitation at 280 nm. Excitation fluorescence spectra were recorded from 230 to 380 nm for an emission at 420 nm. All spectra were recorded with a wavelength step size of 2 nm. Data processing was performed with Excel software 2016. Fluorescence spectra are presented as normalized spectra ranging from 0 to 1. The relative quantum yields were calculated according to Equation (1):(1) ΦT=(AR/AT)×(FT/FR)×[…]×ΦR where Φ is the fluorescence quantum yield, A is the absorbance at the excitation wavelength, F is the area under the corrected emission curve, and n is the refractive index of the solvent for the test compound (T) and the reference (R). The 4-MUB value in DMF was used as the reference. The LOD (resp. LOQ) values were determined as the minimal concentration of product S-3 required to yield a fluorescence that was twice greater than (respectively, 5-times that of) the fluorescence noise on a sample containing PBS, using an excitation wavelength of 280 nm and an emission wavelength of 386 nm (Figure S44).

Details of data set [2]: method as in doi:10.1016/1010-6030(89)87054-6. The following applies: DMF; ref [50]; cited from earlier work.
A short description of data set [3]: Fluorescence excitation/emission spectroscopy and relative quantum yield. Particulars: 7-MC in presence of 10 mM DTT; for Fluorescence λmax ex: emission at 420 nm; for Fluorescence λmax em: excitation at 280 nm. The class given is physicochemical. The procedure:
The values determined were close to those observed for the 4-MUB fluorophore.
as §1, with “All synthesized molecules were initially dissolved in 10 mM DMF and subsequently diluted in freshly prepared PBS (pH = 7.4) to achieve a final concentration of 0.1 mM.” left out

In data set [4] the test system is SK-MEL-28 (melanoma skin cancer). In words: MTT cell proliferation assay, SK-MEL-28. Format: cell-based. The following applies: Homo sapiens, 72 h incubation, 95% confidence interval in parentheses. The procedure: (§2) To use these S-glycosidic compounds in cellulo, the potential impact of the glycosidic linkage nature on the anticancer activity was assessed. The S-glycoside derivatives and the 7-MC were tested against four human cancer cell lines and a healthy one, namely A549 (lung carcinoma), HS-683 (glioma cancer), MCF-7 (breast adenocarcinoma), SK-MEL-28 (melanoma skin cancer), and HaCaT (keratinocyte normal skin), using MTT (thiazolyl blue tetrazolium bromide, Sigma-Aldrich, St. Louis, MO, USA) assay, as previously described in the literature. The selected reference drugs were 5-fluorouracil (5-FU) and etoposide.
(§3) Cell proliferation of five distinct cell lines was evaluated using the colorimetric MTT (thiazolyl blue tetrazolium bromide, Sigma) assay. Human keratinocyte normal skin HaCaT was cultivated in DMEM supplemented with 4.5 g/L glucose, 2 mM L-glutamine, and 10% FBS. Cancer cell lines and their respective growth media were obtained from CLS Cell Line Service GmbH (Eppelheim, Germany). Specifically, human skin melanoma SK-MEL-28 and human brain glioma HS683 were cultivated in DMEM with identical supplements as HaCaT cells. The human lung carcinoma cell line A-549 was grown in DMEM/Ham’s F12 (1:1) medium supplemented with 2 mM L-glutamine and 5% FBS. Additionally, human breast adenoma carcinoma MCF-7 cells were sustained in EMEM supplemented with 2 mM L-glutamine, sodium pyruvate, non-essential amino acids (NEAAs), 10 µg/mL insulin human, and 10% FBS. The MTT assay relies on the reduction of the yellow product thiazolyl blue tetrazolium bromide (MTT) to formazan, a purple-blue product, by mitochondrial dehydrogenases in metabolically active cells. The number of living cells after incubation in the presence (or absence, control) of the tested molecules is directly proportional to the blue color, which was measured by spectrophotometry. To perform the assay, cells were initially seeded at a density of 2500 cells/mL in 96-well culture plates (Nunc™ Edge 2.0, Fisher) and allowed to adhere and proliferate over a 24-hour incubation period. Following this, the cells were treated with various concentrations of the tested compounds, which were previously prepared as serial dilutions and dissolved in 0.1% DMSO. These stable solutions guarantee the consistency of experimental conditions over extended periods. Each concentration of the tested compounds underwent triplicate testing (n = 3), and cells were subsequently incubated for 72 h to allow for thorough evaluation. Following this incubation period, MTT reagent (5 mg/mL solution in PBS) was introduced to each well (10% v/v), and cells were further incubated for 4 h. Then, the culture medium was carefully removed, and the resulting blue formazan crystals were dissolved in 100 µL of 100% DMSO. Absorbance readings were taken at 540 nm, referencing a wavelength of 620 nm, using a spectrophotometer. In determining the IC50, the absorbance of serial dilutions of each cell line, treated under identical conditions but without the presence of the tested compounds, was measured.

The subject of another data set is HS683 (brain glioma). In words: MTT cell proliferation assay, HS683. Format: cell-based. Particulars: Homo sapiens, Hs 683, 72 h incubation, 95% confidence interval in parentheses. The procedure:
as §2, §3

Data set [5] relates to MCF-7 (breast adenocarcinoma). In words: MTT cell proliferation assay, MCF-7. The class given is cell-based. The following applies: Homo sapiens, MCF7, 72 h incubation, 95% confidence interval in parentheses. On the procedure:
as §2, §3

Data set [6] concerns HaCaT (keratinocyte normal skin). In words: MTT cell proliferation assay, HaCaT. Format: cell-based. Particulars: Homo sapiens, 72 h incubation, 95% confidence interval in parentheses. On the procedure:
as §2, §3

The next data set deals with A-549 (lung carcinoma). As to the kind of experiment: MTT cell proliferation assay, A-549. The class given is cell-based, human. Particulars: Homo sapiens, A549, 72 h, 72 h incubation, 95% confidence interval in parentheses. On the procedure:
To use these S-glycosidic compounds in cellulo, the potential impact of the glycosidic linkage nature on the anticancer activity was assessed. The S-glycoside derivatives and the 7-MC were tested against four human cancer cell lines and a healthy one, namely A549 (lung carcinoma), HS-683 (glioma cancer), MCF-7 (breast adenocarcinoma), SK-MEL-28 (melanoma skin cancer), and HaCaT (keratinocyte normal skin), using MTT (thiazolyl blue tetrazolium bromide, Sigma-Aldrich, St. Louis, MO, USA) assay, as previously described in the literature.
as §3, with “These stable solutions guarantee the consistency of experimental conditions over extended periods.” left out

Setting [7] is: DMF, 7-MC in presence of 10 mM DTT.

For the molecule `Cc1cc(=O)oc2cc(O)ccc12` [Compound 4-MUB, 4-methylumbelliferone, reference compound], in data set [1] (setting [7]), the “Absorbance ε (molar absorption coefficient)” value is recorded as 17.0 10^3 M^−1 cm^−1. Besides, the “Absorbance λmax abs” value in data set [1] (setting [7]) came to 322 nm; in data set [1] (PBS (PBS:DMF 99:1, pH 7.4), 7-MC in presence of 10 mM DTT), 324 nm. For the same molecule, in data set [1] (PBS 1x (pH = 7.4), 7-MC + DTT 10 mM), the “emax (molar absorption coefficient)” value is listed as 20129,15057 cm-1 M-1. In addition, the “Quantum yield Φ (reference value)” value in data set [2] was 0.081 ^a. Further, the “Fluorescence λmax ex” value was found to be 320 nm in data set [3] (DMF, 0.1 mM) and 333 nm in data set [3] (PBS pH 7.4, 0.1 mM). In addition, the “Fluorescence λmax em” value was found to be 380 nm in data set [3] (DMF, 0.1 mM) and 448 nm in data set [3] (PBS pH 7.4, 0.1 mM). Besides, in data set [3] (PBS, relative to 4-MUB in DMF), the “Relative quantum yield Φ” value stood at 0.293.
With `O=c1[nH]cc(F)c(=O)[nH]1` [Compound 5-FU, 5-fluorouracil, reference compound], the IC50 in data set [4] was 6.6 µM; in the data set with HS683 (brain glioma), 37 µM; in data set [5], 4.8 µM; in data set [6] it was 0.4 µM.
As to `COc1cc([C@@H]2c3cc4c(cc3[C@@H](O[C@@H]3O[C@@H]5CO[C@@H](C)O[C@H]5[C@H](O)[C@H]3O)[C@H]3COC(=O)[C@H]23)OCO4)cc(OC)c1O` [Etoposide, etoposide, reference compound], the IC50 in data set [4] was determined as 3.2 µM; in the data set on HS683 (brain glioma), 1.6 µM; with A-549 (lung carcinoma), 1.6 µM; in data set [5], 3.9 µM; in data set [6], 0.5 µM.
